The target of one experiment is T1, RORγt-LBD (Homo sapiens, UniProt P51449).
T1 sequence (P51449 269-508 limits assumed): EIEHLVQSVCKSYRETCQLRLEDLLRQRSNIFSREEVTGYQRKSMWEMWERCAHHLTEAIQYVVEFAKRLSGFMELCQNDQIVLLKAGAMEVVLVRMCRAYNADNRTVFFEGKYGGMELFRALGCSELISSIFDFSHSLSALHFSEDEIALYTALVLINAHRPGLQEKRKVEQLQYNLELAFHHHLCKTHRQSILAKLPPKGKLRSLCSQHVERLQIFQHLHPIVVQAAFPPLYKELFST
As to the kind of experiment: Time-resolved fluorescence resonance energy-transfer assay (TR-FRET), co-activator peptide recruitment. The experiment is classed as biochemical. The arrangement: TR-FRET Biochemical Amax: unit not given here. The conditions noted are these: for EC50: His-RORγt-LBD 30 nM, SRC peptide 500 nM, agonistic activity, averages of one or more measurements, read-out: TR-FRET Biochemical EC50/; for TR-FRET Biochemical Amax: upper activation limit, His-RORγt-LBD, SRC peptide. An excerpt:
I. Time-Resolved Fluorescence Resonance Energy-Transfer Assay (TR-FRET)
This experiment was a screening experiment for RORγt nuclear receptor agonists based on TR-FRET technology. When His-labeled RORγt-LBD receptor binds to receptor agonists, it may increase the recruitment of biotin-labeled co-activator peptides. Europium-His-RORγt-LBD is indirectly labeled by donor (Eu) by binding to Eu-anti-His antibody. Once Eu is activated by an energy source (such as flashlight or laser), the energy will be transferred to the co-activator indirectly labeled by allophycocyanin by binding of allophycocyanin-streptavidin and biotin-labeled co-activator. • 1. 10× buffer (500 mM Tris-HCl, 500 mM KCl, and 10 mM Na-EDTA) was prepared, pH value was adjusted to 7.0. The buffer was stored at 4° C. for later use and was restored to normal temperature before experiment; • 2. The 10× buffer was diluted to 1× with pure water. Final concentration of 0.01% Triton X-100 and 1 mM DTT (dithiothreitol) were added to prepare the assay buffer; • 3. DMSO was used to prepare 1000× compound stock solution. The compound solution was serial-diluted in 5-fold for 7 concentrations from the top concentration of 1000 nM/10000 nM. Then the 10× compound solution was prepared with assay buffer. An amount of 2 μL was aliquoted into the 20 μL system; • 4. 5×RORγt-LBD protein solution was unfreezed, and a solution of 5× concentration was prepared with assay buffer to obtain a final concentration of 30 nM. The whole operation was carried out on ice; • 5. 5×SRC peptide was unfreezed, and a solution of 5× concentration was prepared with assay buffer to obtain a final concentration of 500 nM. The whole operation was carried out on ice; • 6. 4 μL/well of RORγt-LBD receptor was added into the testing wells of 384-well plate, and the same amount of assay buffer was added to the control wells of non-RORγt-LBD group; • 7. 2 μL of compound was added into each well of 384-well plate; • 8. 4 μL of SRC peptide was added into each well of 384-well plate; • 9. 2× Eu-anti-6× His/APC-Streptavidin was diluted with Lance detection buffer to a final concentration of 0.25 nM and 5 nM, respectively, and then 10 μL of 2× Eu-anti-6× His/APC-Streptavidin was added into each well of 384-well plate; • 10. The mixed solution was incubated at 4° C. overnight; • 11. On the morning of the next day, the 384-well plate was incubated at room temperature for 1 hr. Then the corresponding signal values were read with PerkinElmer EnVision at a wavelength of 665/615 […]. The agonistic activity of the corresponding compound was calculated with Graphpad Prism 7.0 software.
(In general: In TR-FRET formats the signal depends on donor and acceptor labels being close together.)

A further experiment has as its target T2, RORγt (Homo sapiens, UniProt P51449).
T2 construct: The plasmid of pFN26A-RORγt-LBD and pG14.35 (Promega, Cat. No. E1370) were co-transfected into HEK 293 cells; expressed in transfected cells; host or cells: HEK 293 cells (Cat. No. GNHu18)
T2 sequence (P51449 269-508 limits assumed): T1 sequence (P51449 269-508 limits assumed)
As to the kind of experiment: RORγt cellular reporter gene detection assay.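 For Cellular Reporter Assay Amax: Ursolic Acid added as 5 µL of 20 µM medium per well.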 Type of experiment: cell-based. The conditions noted are these: 24 hrs; for EC50: HEK 293 cells co-transfected with pFN26A-RORγt-LBD and pG14.35, in presence of antagonist Ursolic acid, top concentration 50 μM; for Cellular Reporter Assay Amax: upper activation limit, HEK 293 cells, in presence of antagonist Ursolic acid. As for the experimental part:
II. RORγt Cellular Reporter Gene Detection Assay
In this experiment, RORγt Reporter Gene Detection method was used to evaluate the activation and specificity of compounds to RORγt in cells. The plasmid of pFN26A-RORγt-LBD and pG14.35 (Promega, Cat. No. E1370) were co-transfected into HEK 293 cells (Cat. No. GNHu18). The efficacy of compounds was evaluated with the presence of an antagonist Ursolic acid (Selleck, Cat. No. S2370-100 mg). The specific experimental process was as follow: • 1. The plasmids-co-transfected cells were inoculated into a 96-well plate (Corning, Cat. No 3610) in a fresh DMEM medium (Gibco, cat. No. 1773536) containing 10% fetal bovine serum (Gibco, Cat. No. 10099-141) at 30000 cells/40 μL/well; • 2. 5 μL of medium containing 20 μM Ursolic acid was added thereto; • 3. The dose effect was evaluated by a 4-fold dilution of the test compound starting from 50 μM; • 4. 5 μL of medium containing a compound concentration of 10-fold of its final test concentration was added; • 5. After the cells were incubated at 37° C. and 5% CO2 for 24 hrs, 50 μL of detection reagent was added to detect firefly fluorescence using PerkinElmerEnVision, and 50 μL of the second detection reagent was added to detect sea kidney fluorescence; • 6. A four-parameter curve simulated in GraphPad Prism was used to determine the concentration for 50% activation (EC50) and the upper activation limit (Amax) for each compound.
(In general: A reporter such as luciferase makes a cellular process visible.)

`CC1(C)C=C(c2ccc3c(c2)N(S(=O)(=O)c2cccc(C(F)(F)F)c2)C[C@@H]2CN(S(C)(=O)=O)CCN32)CC(C)(C)O1` [Example 19, (S)-3-(methylsulfonyl)-8-(2,2,6,6-tetramethyl-3,6-dihydro-2H-pyran-4-yl)-6-((3-(trifluorometh-yl)phenyl)sulfonyl)-2,3,4,4a,5,6-hexahydro-1H-pyrazino[1,2-a]quinoxaline]: on RORγt-LBD, the EC50 was 0.0178 µM and the “TR-FRET Biochemical Amax” value is on record as 0.97. In addition, at RORγt, the EC50 was 0.0257 µM and the “Cellular Reporter Assay Amax” value is recorded as 2.0.
For `O=C(O)CN1CCN2c3ccc(/C=C/c4c(Cl)cccc4C(F)(F)F)cc3N(S(=O)(=O)c3cccc(C(F)(F)F)c3)C[C@@H]2C1` [Example 20, (S,E)-2-(8-(2-chloro-6-(trifluoro-methyl)styryl)-6-((3-(tri-fluoromethyl)phenyl)sulfonyl)-1,2,4,4a,5,6-hexahydro-3H-pyrazino[1,2-a]quinoxalin-3-yl)acetic acid], on RORγt-LBD, the EC50 came out at 0.032 µM and the “TR-FRET Biochemical Amax” value was determined as 1.01. Moreover, on RORγt, the EC50 stood at 0.418 µM and the “Cellular Reporter Assay Amax” value turned out to be 6.3.
`C/C(=C\c1ccc2c(c1)N(S(=O)(=O)c1cccc(C(F)(F)F)c1)C[C@@H]1CN(CC(=O)O)CCN21)c1c(F)cccc1Cl` [Example 21, (S,E)-2-(8-(2-(2-chloro-6-fluoro-phenyl)prop-1-en-1-yl)-6-((3-(trifluoromethyl)phenyl)sulfonyl)-1,2,4,4a,5,6-hexa-hydro-3H-pyrazino[1,2-a]quinoxalin-3-yl)acetic acid]: on RORγt-LBD, the EC50 came out at 0.0176 µM and the “TR-FRET Biochemical Amax” value came out at 0.94. Further, on RORγt, the EC50 was found to be 0.273 µM and the “Cellular Reporter Assay Amax” value was determined as 5.5.
On the same counts, the results for `CC1(C)C=C(c2ccc3c(c2)N(S(=O)(=O)c2cccc(C(F)(F)F)c2)C[C@@H]2CN(CC(=O)O)CCN32)CC(C)(C)O1` [Example 22, (S)-2-(8-(2,2,6,6-tetramethyl-3,6-dihydro-2H-pyran-4-yl)-6-((3-(trifluoromethyl)phenyl)sulfonyl)-1,2,4,4a,5,6-hexa-hydro-3H-pyrazino[1,2-a]quinoxalin-3-yl)acetic acid] are 0.00151 µM, 0.62, 0.245 µM and 3.3.
As to `COC(=O)C(C)N1CCN2c3ccc(/C=C(\C)c4c(F)cccc4Cl)cc3N(S(=O)(=O)c3cccc(C(F)(F)F)c3)C[C@@H]2C1` (stereo partly drawn) [Example 23, methyl 2-((S)-8-((E)-2-(2-chloro-6-fluorophenyl)prop-1-en-1-yl)-6-((3-(trifluoromethyl)phenyl)sulfonyl)-1,2,4,4a,5,6-hexahydro-3H-pyrazino[1,2-a]quinoxalin-3-yl)propanoate], at RORγt-LBD, the EC50 amounted to 0.0172 µM and the “TR-FRET Biochemical Amax” value came out at 0.79. On RORγt, the EC50 is 1.07 µM and the “Cellular Reporter Assay Amax” value came to 3.8.
As for `COC(=O)C(C)N1CCN2c3ccc(C4=CC(C)(C)OC(C)(C)C4)cc3N(S(=O)(=O)c3cccc(C(F)(F)F)c3)C[C@@H]2C1` (stereo partly drawn) [Example 24, methyl 2-((S)-8-(2,2,6,6-tetramethyl-3,6-dihydro-2H-pyran-4-yl)-6-((3-(trifluoro-methyl)phenyl)sulfonyl)-1,2,4,4a,5,6-hexahydro-3H-pyrazino[1,2-a]qui-noxalin-3-yl)propanoate], on RORγt-LBD, the EC50 stood at 0.0315 µM and the “TR-FRET Biochemical Amax” value is 0.92. Besides, on RORγt, the EC50 amounted to 0.0485 µM and the “Cellular Reporter Assay Amax” value was 2.4.
For the molecule `C/C(=C\c1ccc2c(c1)N(S(=O)(=O)c1cccc(C(F)(F)F)c1)C[C@@H]1CN(C(C)C(=O)O)CCN21)c1c(F)cccc1Cl` (stereo partly drawn) [Example 25, 2-((S)-8-((E)-2-(2-chloro-6-fluorophenyl)prop-1-en-1-yl)-6-((3-(trifluoromethyl)phenyl)sulfonyl)-1,2,4,4a,5,6-hexahydro-3H-pyrazino[1,2-a]quinoxalin-3-yl) propanoic acid], at RORγt-LBD, the EC50 was found to be 0.00635 µM and the “TR-FRET Biochemical Amax” value was 0.84. In addition, at RORγt, the EC50 is 0.441 µM and the “Cellular Reporter Assay Amax” value turned out to be 4.4.
Regarding `CC(C(=O)O)N1CCN2c3ccc(-c4cc(F)cc(OC(F)F)c4)cc3N(S(=O)(=O)c3cccc(C(F)(F)F)c3)C[C@@H]2C1` (stereo partly drawn) [Example 26, 2-((S)-8-(3-(difluorome-thoxy)-5-fluorophenyl)-6-((3-(trifluoromethyl)phe-nyl)sulfonyl)-1,2,4,4a,5,6-hexahydro-3H-pyrazino[1,2-a]quinoxalin-3-yl) propanoic acid], on RORγt-LBD, the EC50 was found to be 0.0296 µM and the “TR-FRET Biochemical Amax” value was 0.64. Besides, at RORγt, the EC50 was 0.404 µM and the “Cellular Reporter Assay Amax” value turned out to be 2.3.
On to `CC(C(=O)O)N1CCN2c3ccc(C4=CC(C)(C)OC(C)(C)C4)cc3N(S(=O)(=O)c3cccc(C(F)(F)F)c3)C[C@@H]2C1` (stereo partly drawn) [Example 27, 2-((S)-8-(2,2,6,6-tetrameth-yl-3,6-dihydro-2H-pyran-4-yl)-6-((3-(trifluorometh-yl)phenyl)sulfonyl)-1,2,4,4a,5,6-hexahydro-3H-pyrazino[1,2-a]quinoxalin-3-yl)propanoic acid], for which, on RORγt-LBD, the EC50 turned out to be 0.00525 µM and the “TR-FRET Biochemical Amax” value came to 0.61. Also, at RORγt, the EC50 was 0.228 µM and the “Cellular Reporter Assay Amax” value was determined as 3.9.
For `N#CCC(=O)N1CCN2c3ccc(-c4cc(F)cc(OC(F)F)c4)cc3N(S(=O)(=O)c3cccc(C(F)(F)F)c3)C[C@@H]2C1` [Example 28, (S)-3-(8-(3-(difluoromethoxy)-5-fluorophenyl)-6-((3-(trifluoromethyl)phenyl)sulfonyl)-1,2,4,4a,5,6-hexahydro-3H-pyrazino[1,2-a]quinoxalin-3-yl)-3-oxopropanenitrile], in that order: 0.0147 µM, 0.86, 0.354 µM and 2.6.
In the case of `N#CCC(=O)N1CCN2c3ccc(/C=C/c4c(Cl)cccc4C(F)(F)F)cc3N(S(=O)(=O)c3cccc(C(F)(F)F)c3)C[C@@H]2C1` [Example 29, (S,E)-3-(8-(2-chloro-6-(tri-fluoromethyl)styryl)-6-((3-(trifluoromethyl)phenyl)sulfonyl)-1,2,4,4a,5,6-hexa-hydro-3H-pyrazino[1,2-a]quinoxalin-3-yl)-3-oxopro-panenitrile], on RORγt-LBD, the EC50 was determined as 0.0173 µM and the “TR-FRET Biochemical Amax” value is recorded as 0.84. In addition, on RORγt, the EC50 amounted to 1.98 µM and the “Cellular Reporter Assay Amax” value came to 6.7.

These data come from US20220009894A1, “1,2,3,4-TETRAHYDROQUINOXALINE DERIVATIVE, PREPARATION METHOD THEREFOR AND APPLICATION THEREOF” (Abbisko Therapeutics Co., Ltd., priority 2019, published 2022).
